Data taken from the supplement of paper PMC10627819.

Tests used:
S. pneumoniae D39V [1] = test: fitness (endpoint OD595 vs no drug) (fraction); higher = more growth
Summary of the method: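 Plates with 384 wells were inoculated at OD595 0.01 using 30 µl of TSB, LB Lennox or CY, or 55 µl for S. pneumoniae. Incubation was at 37 °C, with OD595 measured every 30 min for 14 h. Fitness is the stationary-phase transition optical density over the robust mean of no-drug control wells, after first-reading background subtraction; it is capped at 1.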

S. aureus DSM 20231 = test: Bliss interaction score (quartile over a dose matrix) (fitness difference); higher = more antagonism (negative = synergy)
Summary of the method: (§1)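 Each plate was normalised to the robust mean of its own no-drug wells, using OD595 at entry into stationary phase, with values capped at 1. This normalised growth is the fitness value. The Bliss score is the difference between observed and product-expected fitness, with single-drug fitness inferred from the combination data and quartiles taken over technical, biological and donor/recipient replicates.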

B. subtilis 168 = test: as above
Summary of the method: as §1

S. pneumoniae D39V [2] = test: as above
Summary of the method: as §1

S. aureus Newman = test: as above
Summary of the method: as §1
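For Bliss interaction score (quartile over a dose matrix) in this document: first quartile when negative (synergy) and third quartile when positive (antagonism).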

Clc1ccc(COC(Cn2ccnc2)c2ccc(Cl)cc2Cl)c(Cl)c1 (stereo not given) [Miconazole] + COc1c(N2C[C@@H]3CCCN[C@@H]3C2)c(F)cc2c(=O)c(C(=O)O)cn(C3CC3)c12 [Moxifloxacin]
fitness, S. pneumoniae D39V [1]
Settings	first compound 1.073 µg/mL	first compound 1.25 µg/mL	first compound 2.145 µg/mL	first compound 2.5 µg/mL	first compound 4.29 µg/mL	first compound 5 µg/mL
partner 0.0037 µg/mL	0.959	–	0.951	–	0.802	–
partner 0.005 µg/mL	–	0.935	–	0.926	–	0.953
partner 0.0075 µg/mL	0.986	–	0.942	–	0.796	–
partner 0.01 µg/mL	–	0.925	–	0.936	–	0.961
partner 0.015 µg/mL	0.957	–	0.942	–	0.682	–
partner 0.02 µg/mL	–	0.825	–	0.828	–	0.911

Settings	Bliss interaction score
B. subtilis 168	-0.0223
S. aureus DSM 20231	-0.059
S. aureus Newman	0.0536
S. pneumoniae D39V [2]	0.0598

Clc1ccc(COC(Cn2ccnc2)c2ccc(Cl)cc2Cl)c(Cl)c1 (stereo not given) [Miconazole] + COc1ccc(C[C@H](N)C(=O)N[C@H]2[C@@H](O)[C@H](n3cnc4c(N(C)C)ncnc43)O[C@@H]2CO)cc1 [Puromycin]
fitness, S. pneumoniae D39V [1]
Settings	first compound 1.073 µg/mL	first compound 2.145 µg/mL	first compound 4.29 µg/mL
partner 1 µg/mL	0.966	≥ 1	0.968
partner 2 µg/mL	0.996	≥ 1	0.976
partner 4 µg/mL	0.879	0.903	0.846

fitness, S. pneumoniae D39V [1], one replicate
Settings	first compound 1.25 µg/mL	first compound 2.5 µg/mL	first compound 5 µg/mL
partner 1 µg/mL	0.884	0.91	≥ 1
partner 2 µg/mL	0.914	0.903	0.874
partner 4 µg/mL	0.742	0.717	0.809

Settings	Bliss interaction score
B. subtilis 168	0.0522
S. aureus DSM 20231	0.0532
S. aureus Newman	0.0603
S. pneumoniae D39V [2]	0.124

Clc1ccc(COC(Cn2ccnc2)c2ccc(Cl)cc2Cl)c(Cl)c1 (stereo not given) [Miconazole] + C[n+]1ccc(-c2cc[n+](C)cc2)cc1 [Paraquat]
fitness, S. pneumoniae D39V [1]
Settings	first compound 1.073 µg/mL	first compound 2.145 µg/mL	first compound 4.29 µg/mL
partner 1.5 µg/mL	≥ 1	0.999	0.925
partner 3 µg/mL	≥ 1	0.987	0.908
partner 6 µg/mL	0.979	0.983	0.824

fitness, S. pneumoniae D39V [1], one replicate
Settings	first compound 1.25 µg/mL	first compound 2.5 µg/mL	first compound 5 µg/mL
partner 1.5 µg/mL	≥ 1	0.983	0.944
partner 3 µg/mL	≥ 1	≥ 1	0.997
partner 6 µg/mL	0.957	0.932	0.885

Settings	Bliss interaction score
B. subtilis 168	0.0318
S. aureus DSM 20231	0.0436
S. aureus Newman	-0.0378
S. pneumoniae D39V [2]	-0.0527

Clc1ccc(COC(Cn2ccnc2)c2ccc(Cl)cc2Cl)c(Cl)c1 (stereo not given) [Miconazole] + Cc1cc(NS(=O)(=O)c2ccc(N)cc2)no1 [Sulfamethoxazol]
fitness, S. pneumoniae D39V [1]
Settings	first compound 1.073 µg/mL	first compound 2.145 µg/mL	first compound 4.29 µg/mL
partner 1 µg/mL	0.989	≥ 1	0.946
partner 2 µg/mL	0.981	0.998	0.923
partner 4 µg/mL	0.999	0.988	0.924

fitness, S. pneumoniae D39V [1], one replicate
Settings	first compound 1.25 µg/mL	first compound 2.5 µg/mL	first compound 5 µg/mL
partner 1 µg/mL	0.94	0.966	0.932
partner 2 µg/mL	0.894	0.955	0.908
partner 4 µg/mL	0.892	0.876	0.864

Settings	Bliss interaction score
B. subtilis 168	0.0845
S. aureus DSM 20231	0.0319
S. aureus Newman	0.0463
S. pneumoniae D39V [2]	0.0572

Clc1ccc(COC(Cn2ccnc2)c2ccc(Cl)cc2Cl)c(Cl)c1 (stereo not given) [Miconazole] + Cc1onc(-c2ccccc2)c1C(=O)N[C@@H]1C(=O)N2[C@@H]1SC(C)(C)[C@@H]2C(=O)O [Oxacillin]
fitness, S. pneumoniae D39V [1]
Settings	first compound 1.073 µg/mL	first compound 1.25 µg/mL	first compound 2.145 µg/mL	first compound 2.5 µg/mL	first compound 4.29 µg/mL	first compound 5 µg/mL
partner 0.01 µg/mL	≥ 1	0.939	≥ 1	0.938	0.928	0.946
partner 0.02 µg/mL	0.977	0.864	0.906	0.874	0.716	0.892
partner 0.04 µg/mL	–	0.363	–	0.359	0.434	0.386

Settings	Bliss interaction score
B. subtilis 168	0.0802
S. aureus DSM 20231	0.0539
S. aureus Newman	0.0481
S. pneumoniae D39V [2]	0.0753

Clc1ccc(COC(Cn2ccnc2)c2ccc(Cl)cc2Cl)c(Cl)c1 (stereo not given) [Miconazole] + Cn1nnc(-c2ccc(-c3ccc(N4C[C@H](CO)OC4=O)cc3F)cn2)n1 [Tedizolid]
fitness, S. pneumoniae D39V [1]
Settings	first compound 1.073 µg/mL	first compound 1.25 µg/mL	first compound 2.145 µg/mL	first compound 2.5 µg/mL	first compound 4.29 µg/mL	first compound 5 µg/mL
partner 0.03125 µg/mL	–	0.96	–	0.97	–	0.925
partner 0.0625 µg/mL	–	0.968	–	0.929	–	0.934
partner 0.125 µg/mL	0.872	0.797	0.937	0.797	0.943	0.746
partner 0.25 µg/mL	0.729	–	0.778	–	0.829	–
partner 0.5 µg/mL	0.413	–	0.402	–	0.489	–

Settings	Bliss interaction score
B. subtilis 168	0.0402
S. aureus DSM 20231	0.0592
S. aureus Newman	0.0625
S. pneumoniae D39V [2]	-0.0671

Clc1ccc(COC(Cn2ccnc2)c2ccc(Cl)cc2Cl)c(Cl)c1 (stereo not given) [Miconazole] + O=C1CN(/N=C/c2ccc([N+](=O)[O-])o2)C(=O)N1 [Nitrofurantoin]
fitness, S. pneumoniae D39V [1]
Settings	first compound 1.073 µg/mL	first compound 1.25 µg/mL	first compound 2.145 µg/mL	first compound 2.5 µg/mL	first compound 4.29 µg/mL	first compound 5 µg/mL
partner 1.285 µg/mL	–	0.987	–	0.959	–	0.945
partner 2 µg/mL	0.972	–	≥ 1	–	0.93	–
partner 2.57 µg/mL	–	0.968	–	0.954	–	0.936
partner 4 µg/mL	0.988	–	≥ 1	–	0.949	–
partner 8 µg/mL	0.92	–	0.951	–	0.919	–

S. pneumoniae D39V [1], partner 5.14 µg/mL, one replicate
Settings	fitness
first compound 1.25 µg/mL	0.897
first compound 2.5 µg/mL	0.848
first compound 5 µg/mL	0.847

Settings	Bliss interaction score
B. subtilis 168	-0.125
S. aureus DSM 20231	0.0458
S. aureus Newman	-0.0579
S. pneumoniae D39V [2]	0.091

Cc1onc(-c2ccccc2)c1C(=O)N[C@@H]1C(=O)N2[C@@H]1SC(C)(C)[C@@H]2C(=O)O [Oxacillin] + CO[C@H]1/C=C/O[C@@]2(C)Oc3c(C)c(O)c4c(O)c(c(/C=N/N5CCN(C)CC5)c(O)c4c3C2=O)NC(=O)/C(C)=C\C=C\[C@H](C)[C@H](O)[C@@H](C)[C@@H](O)[C@@H](C)[C@H](OC(C)=O)[C@@H]1C [Rifampicin]
S. pneumoniae D39V [1], partner 0.025 µg/mL, one replicate
Settings	fitness
first compound 0.01 µg/mL	0.891
first compound 0.02 µg/mL	0.801
first compound 0.04 µg/mL	0.407

S. pneumoniae D39V [1], partner 0.2 µg/mL
Settings	fitness
first compound 0.01 µg/mL	0.144
first compound 0.02 µg/mL	0.0871
first compound 0.04 µg/mL	0.143

Settings	Bliss interaction score
B. subtilis 168	0.0578
S. aureus DSM 20231	0.0464
S. aureus Newman	0.0684
S. pneumoniae D39V [2]	-0.0851

C[n+]1ccc(-c2cc[n+](C)cc2)cc1 [Paraquat] + CO[C@H]1/C=C/O[C@@]2(C)Oc3c(C)c(O)c4c(O)c(c(/C=N/N5CCN(C)CC5)c(O)c4c3C2=O)NC(=O)/C(C)=C\C=C\[C@H](C)[C@H](O)[C@@H](C)[C@@H](O)[C@@H](C)[C@H](OC(C)=O)[C@@H]1C [Rifampicin]
S. pneumoniae D39V [1], partner 0.025 µg/mL, one replicate
Settings	fitness
first compound 1.5 µg/mL	0.869
first compound 3 µg/mL	0.833
first compound 6 µg/mL	0.842

fitness, S. pneumoniae D39V [1]
Settings	first compound 1.5 µg/mL	first compound 3 µg/mL	first compound 6 µg/mL
partner 0.05 µg/mL	–	0.882	0.897
partner 0.2 µg/mL	0.0862	0.102	0.0798

Settings	Bliss interaction score
B. subtilis 168	0.0618
S. aureus DSM 20231	0.0593
S. aureus Newman	0.0217
S. pneumoniae D39V [2]	-0.0393

Cn1c2cccc(=O)c-2nc2ccccc21 [Pyocyanin] + CO[C@H]1/C=C/O[C@@]2(C)Oc3c(C)c(O)c4c(O)c(c(/C=N/N5CCN(C)CC5)c(O)c4c3C2=O)NC(=O)/C(C)=C\C=C\[C@H](C)[C@H](O)[C@@H](C)[C@@H](O)[C@@H](C)[C@H](OC(C)=O)[C@@H]1C [Rifampicin]
fitness, S. pneumoniae D39V [1], one replicate
Settings	first compound 0.325 µg/mL	first compound 0.65 µg/mL	first compound 1.3 µg/mL
partner 0.025 µg/mL	0.917	0.942	0.765
partner 0.2 µg/mL	–	–	0.021

fitness, S. pneumoniae D39V [1]
Settings	first compound 0.325 µg/mL	first compound 0.65 µg/mL
partner 0.05 µg/mL	–	0.885
partner 0.2 µg/mL	0.0407	0.178

Settings	Bliss interaction score
B. subtilis 168	-0.0612
S. aureus DSM 20231	0.031
S. aureus Newman	0.0295
S. pneumoniae D39V [2]	0.0928
